Reference: PubChem BioAssay AID1259407 (Chemical Carcinogenesis Research Information System (CCRIS), 2018)
Calls of active or inactive are those of the source. The rule behind the calls is not given here.

Test system: CCRIS mutagenicity, Ames/micronucleus/aberration tests
Test: CCRIS mutagenicity studies
[1] = Test System: AMES SALMONELLA TYPHIMURIUM, Strain/Indicator: TA98, Metabolic Activation: NONE, Method: PREINCUBATION
[2] = Test System: AMES SALMONELLA TYPHIMURIUM, Strain/Indicator: TA100, Metabolic Activation: NONE, Method: PREINCUBATION

Measured: mutagenic call

O=C1OC2(c3ccccc31)c1cc(I)c(O)c(I)c1Oc1c2cc(I)c(O)c1I
inactive: Test System: AMES SALMONELLA TYPHIMURIUM, Strain/Indicator: TA97A, Metabolic Activation: NONE, Method: PREINCUBATION inactive; negative | Test System: AMES SALMONELLA TYPHIMURIUM, Strain/Indicator: TA97A, Metabolic Activation: RAT CECAL CELL-FREE EXTRACTS, Method: PREINCUBATION inactive; negative | Test System: AMES SALMONELLA TYPHIMURIUM, Strain/Indicator: TA97A, Metabolic Activation: RAT, LIVER, S9, AROCLOR 1254, Method: PREINCUBATION inactive; negative | [1] inactive; negative | Test System: AMES SALMONELLA TYPHIMURIUM, Strain/Indicator: TA98, Metabolic Activation: NONE, Method: STANDARD PLATE inactive; negative | Test System: AMES SALMONELLA TYPHIMURIUM, Strain/Indicator: TA98, Metabolic Activation: RAT CECAL CELL-FREE EXTRACTS, Method: PREINCUBATION inactive; negative | Test System: AMES SALMONELLA TYPHIMURIUM, Strain/Indicator: TA98, Metabolic Activation: RAT, LIVER, S9, AROCLOR 1254, Method: PREINCUBATION inactive; negative | Test System: AMES SALMONELLA TYPHIMURIUM, Strain/Indicator: TA98, Metabolic Activation: RAT, LIVER, S9, AROCLOR 1254, Method: STANDARD PLATE inactive; negative | Test System: AMES SALMONELLA TYPHIMURIUM, Strain/Indicator: TA98, Metabolic Activation: S9, Method: PREINCUBATION inactive; negative | [2] inactive; negative | Test System: AMES SALMONELLA TYPHIMURIUM, Strain/Indicator: TA100, Metabolic Activation: NONE, Method: STANDARD PLATE inactive; negative | Test System: AMES SALMONELLA TYPHIMURIUM, Strain/Indicator: TA100, Metabolic Activation: RAT CECAL CELL-FREE EXTRACTS, Method: PREINCUBATION inactive; negative | Test System: AMES SALMONELLA TYPHIMURIUM, Strain/Indicator: TA100, Metabolic Activation: RAT, LIVER, S9, AROCLOR 1254, Method: PREINCUBATION inactive; negative | Test System: AMES SALMONELLA TYPHIMURIUM, Strain/Indicator: TA100, Metabolic Activation: RAT, LIVER, S9, AROCLOR 1254, Method: STANDARD PLATE inactive; negative | Test System: AMES SALMONELLA TYPHIMURIUM, Strain/Indicator: TA100, Metabolic Activation: S9, Method: PREINCUBATION inactive; negative | Test System: AMES SALMONELLA TYPHIMURIUM, Strain/Indicator: TA102, Metabolic Activation: NONE, Method: PREINCUBATION inactive; negative | Test System: AMES SALMONELLA TYPHIMURIUM, Strain/Indicator: TA102, Metabolic Activation: RAT CECAL CELL-FREE EXTRACTS, Method: PREINCUBATION inactive; negative | Test System: AMES SALMONELLA TYPHIMURIUM, Strain/Indicator: TA102, Metabolic Activation: RAT, LIVER, S9, AROCLOR 1254, Method: PREINCUBATION inactive; negative | Test System: AMES SALMONELLA TYPHIMURIUM, Strain/Indicator: TA104, Metabolic Activation: NONE, Method: PREINCUBATION inactive; negative | Test System: AMES SALMONELLA TYPHIMURIUM, Strain/Indicator: TA104, Metabolic Activation: RAT CECAL CELL-FREE EXTRACTS, Method: PREINCUBATION inactive; negative | Test System: AMES SALMONELLA TYPHIMURIUM, Strain/Indicator: TA104, Metabolic Activation: RAT, LIVER, S9, AROCLOR 1254, Method: PREINCUBATION inactive; negative | Test System: AMES SALMONELLA TYPHIMURIUM, Strain/Indicator: TA1535, Metabolic Activation: NONE, Method: STANDARD PLATE inactive; negative | Test System: AMES SALMONELLA TYPHIMURIUM, Strain/Indicator: TA1535, Metabolic Activation: RAT, LIVER, S9, AROCLOR 1254, Method: STANDARD PLATE inactive; negative | Test System: AMES SALMONELLA TYPHIMURIUM, Strain/Indicator: TA1537, Metabolic Activation: NONE, Method: STANDARD PLATE inactive; negative | Test System: AMES SALMONELLA TYPHIMURIUM, Strain/Indicator: TA1537, Metabolic Activation: RAT, LIVER, S9, AROCLOR 1254, Method: STANDARD PLATE inactive; negative | Test System: AMES SALMONELLA TYPHIMURIUM, Strain/Indicator: TA1538, Metabolic Activation: NONE, Method: STANDARD PLATE inactive; negative | Test System: AMES SALMONELLA TYPHIMURIUM, Strain/Indicator: TA1538, Metabolic Activation: RAT, LIVER, S9, AROCLOR 1254, Method: STANDARD PLATE inactive; negative | Test System: MOUSE LYMPHOMA, Strain/Indicator: L5178Y (TK+/TK-), Metabolic Activation: RAT, LIVER, S9, AROCLOR 1254, Method: SUSPENSION/PLATE inactive; negative

O=C1NC(=O)c2cc([N+](=O)[O-])ccc21
inactive: Test System: AMES SALMONELLA TYPHIMURIUM, Strain/Indicator: TA97, Metabolic Activation: HAMSTER, LIVER, S-9, AROCLOR 1254 (10%), Method: PREINCUBATION inactive; negative | Test System: AMES SALMONELLA TYPHIMURIUM, Strain/Indicator: TA97, Metabolic Activation: RAT, LIVER, S-9, AROCLOR 1254 (10%), Method: PREINCUBATION inactive; negative | Test System: AMES SALMONELLA TYPHIMURIUM, Strain/Indicator: TA100, Metabolic Activation: HAMSTER, LIVER, S-9, AROCLOR 1254 (10%), Method: PREINCUBATION inactive; negative | [2] inactive; negative | Test System: AMES SALMONELLA TYPHIMURIUM, Strain/Indicator: TA100, Metabolic Activation: RAT, LIVER, S-9, AROCLOR 1254 (10%), Method: PREINCUBATION inactive; negative | Test System: AMES SALMONELLA TYPHIMURIUM, Strain/Indicator: TA1535, Metabolic Activation: HAMSTER, LIVER, S-9, AROCLOR 1254 (10%), Method: PREINCUBATION inactive; negative | Test System: AMES SALMONELLA TYPHIMURIUM, Strain/Indicator: TA1535, Metabolic Activation: NONE, Method: PREINCUBATION inactive; negative | Test System: AMES SALMONELLA TYPHIMURIUM, Strain/Indicator: TA1535, Metabolic Activation: RAT, LIVER, S-9, AROCLOR 1254 (10%), Method: PREINCUBATION inactive; negative
active: Test System: AMES SALMONELLA TYPHIMURIUM, Strain/Indicator: TA97, Metabolic Activation: NONE, Method: PREINCUBATION active; positive | Test System: AMES SALMONELLA TYPHIMURIUM, Strain/Indicator: TA98, Metabolic Activation: HAMSTER, LIVER, S-9, AROCLOR 1254 (10%), Method: PREINCUBATION active; positive | [1] active; positive | Test System: AMES SALMONELLA TYPHIMURIUM, Strain/Indicator: TA98, Metabolic Activation: RAT, LIVER, S-9, AROCLOR 1254 (10%), Method: PREINCUBATION active; positive | Test System: AMES SALMONELLA TYPHIMURIUM, Strain/Indicator: TA1537, Metabolic Activation: HAMSTER, LIVER, S-9, AROCLOR 1254 (10%), Method: PREINCUBATION active; positive | Test System: AMES SALMONELLA TYPHIMURIUM, Strain/Indicator: TA1537, Metabolic Activation: NONE, Method: PREINCUBATION active; positive | Test System: AMES SALMONELLA TYPHIMURIUM, Strain/Indicator: TA1537, Metabolic Activation: RAT, LIVER, S-9, AROCLOR 1254 (10%), Method: PREINCUBATION active; positive
